Laboratory results taken from US9023849B2, “Substituted fused imidazoles and pyrazoles and use thereof” (Bayer Intellectual Property GmbH, priority 2012, dated 2015).

Key:
[1] = system: recombinant guanylate cyclase reporter cell line; assay: Effect on a recombinant guanylate cyclase reporter cell line; format: cell-based; conditions: read-out: MEC (minimal effective concentration)
Experimental: B-2. Effect on a Recombinant Guanylate Cyclase Reporter Cell Line
The cellular action of the inventive compounds is determined on a recombinant guanylate cyclase reporter cell line as described in F. Wunder et al., Anal. Biochem. 339, 104-112 (2005).

human PDE 5 = human PDE 5 (Homo sapiens (Human), UniProt O76074); assay: Inhibition of human phosphodiesterase 5 (PDE 5), SPA assay; format: biochemical; conditions: PDE 5 preparation from human platelets, [8-3H]cGMP substrate
Experimental: B-6. Inhibition of Human Phosphodiesterase 5 (PDE 5)
PDE 5 preparations are obtained from human platelets by disruption (Microfluidizer®, 800 bar, 3 passes), followed by centrifugation (75 000 g, 60 min, 4° C.) and ion exchange chromatography of the supernatant on a Mono Q 10/10 column (linear sodium chloride gradient, elution with a 0.2-0.3M solution of sodium chloride in buffer (20 mM Hepes pH 7.2, 2 mM magnesium chloride). Fractions having PDE 5 activity are combined (PDE 5 preparation) and stored at −80° C.
To determine their in vitro action on human PDE 5, the test substances are dissolved in 100% DMSO and serially diluted. Typically, dilution series (1:3) from 200 μM to 0.091 μM are prepared (resulting final concentrations in the test: 4 μM to 0.0018 μM). In each case 2 μl of the diluted substance solutions are placed into the wells of microtitre plates (Isoplate-96/200 W; Perkin Elmer). Subsequently, 50 μl of a dilution of the above-described PDE 5 preparation are added. The dilution of the PDE 5 preparation is selected such that, during the later incubation, less than 70% of the substrate is converted (typical dilution: 1:100; dilution buffer: 50 mM tris/hydrochloric acid pH 7.5, 8.3 mM magnesium chloride, 1.7 mM EDTA, 0.2% BSA). The substrate, [8-^3H]cyclic guanosine-3′,5′-monophosphate (1 μCi/μl; Perkin Elmer) is diluted 1:2000 with assay buffer (50 mM tris/hydrochloric acid pH 7.5, 8.3 mM magnesium chloride, 1.7 mM EDTA) to a concentration of 0.0005 μCi/μl. By addition of 50 μl (0.025 μCi) of the diluted substrate, the enzyme reaction is finally started. The test mixtures are incubated at room temperature for 60 min and the reaction is stopped by adding 25 μl of a suspension of 18 mg/ml yttrium scintillation proximity beads in water (phosphodiesterase beads for SPA assays, RPNQ 0150, Perkin Elmer). The microtitre plates are sealed with a film and left to stand at room temperature for 60 min Subsequently, the plates are analysed for 30 s per well in a Microbeta scintillation counter (Perkin Elmer). IC50 values are determined using the graphic plot of the substance concentration against percentage PDE 5 inhibition.

rabbit aorta rings = assay: Vasorelaxant effect in vitro (rabbit aorta rings precontracted with phenylephrine); conditions: Oryctolagus cuniculus, phenylephrine contraction, read-out: IC50 (concentration needed to reduce the magnitude of the phenylephrine contraction by 50%)
Experimental: B-1. Vasorelaxant Effect In Vitro
Rabbits are stunned by a blow to the neck and exsanguinated. The aorta is removed, freed from adhering tissue and divided into rings of width 1.5 mm, which are placed individually under prestress into 5 ml organ baths with carbogen-sparged Krebs-Henseleit solution at 37° C. having the following composition (each mM): sodium chloride: 119; potassium chloride: 4.8; calcium chloride dihydrate: 1; magnesium sulphate heptahydrate: 1.4; potassium dihydrogenphosphate: 1.2; sodium hydrogencarbonate: 25; glucose: 10. The contractile force is determined with Statham UC2 cells, amplified and digitalized using A/D transducers (DAS-1802 HC, Keithley Instruments Munich), and recorded in parallel on linear recorders.
To obtain a contraction, phenylephrine is added to the bath cumulatively in increasing concentration. After several control cycles, the substance to be studied is added in increasing dosage each time in every further run, and the magnitude of the contraction is compared with the magnitude of the contraction attained in the last preceding run. This is used to calculate the concentration needed to reduce the magnitude of the control value by 50% (IC50 value). The standard administration volume is 5 μl; the DMSO content in the bath solution corresponds to 0.1%.

IC50 (human PDE 5): 64 nM | IC50 (rabbit aorta rings): 340 nM
SMILES: Cc1ncc2c(-c3nnc4c(n3)NC(=O)C4(C)C)nn(Cc3ccccc3F)c2n1 [Example 16, 3-[1-(2-Fluorobenzyl)-6-methyl-1H-pyrazolo[3,4-d]pyrimidin-3-yl]-7,7-dimethyl-5,7-dihydro-6H-pyrrolo[2,3-e][1,2,4]triazin-6-one]
minimal effective concentration [1]: 0.3 µM
